Data on two molecules can be found in ChEMBL document CHEMBL4800726, “Data for DCP probe MSC-4381” (2021).

The nature of data set [1]: GPCRScan assay: inhibition of GABA/PBR. Also on record: species or system Rattus norvegicus; radioligand conc. used [nm] 0.3 – 2.0, parental cells brain tissue.
Data set [2] deals with Monocarboxylate transporter 4 (Homo sapiens, UniProt O15427). Description: Lactate efflux inhibition assay (MDA-MB-231).
Data set [3] concerns the target T1, 5-hydroxytryptamine receptor 5A (Homo sapiens, UniProt P47898). Particulars: Compound concentration 10.0 uM; call rule not given here.
The target of data set [4] is Kappa-type opioid receptor (Homo sapiens) (UniProt P41145). Conditions: Compound concentration 10.0 uM.
Data set [5] deals with T1, 5-hydroxytryptamine receptor 5A. Description: GPCRScan assay: inhibition of 5-HT5A. Also on record: radioligand conc. used [nm] 2.0 - 3.3, parental cells Flp-In CHO.
Data set [6] concerns the target Adenosine receptor A3 (Homo sapiens) (UniProt P0DMS8). Description: A3 (h) Eurofins-Cerep binding assay. Also on record: ligand concentration 0.15 nM. Conditions: filed as agonist, Compound concentration 10.0 uM.
In data set [7] the target is Beta-1 adrenergic receptor (Homo sapiens) (UniProt P08588). Description: Beta1 (h) Eurofins-Cerep binding assay. Also on record: ligand concentration 0.3 nM. Conditions: filed as agonist, Compound concentration 10.0 uM.
Data set [8] deals with Beta-2 adrenergic receptor (Homo sapiens) (UniProt P07550). Description: Beta2 (h) Eurofins-Cerep binding assay. Particulars: filed as antagonist, Compound concentration 10.0 uM.
The target of data set [9] is Type-1 angiotensin II receptor (Homo sapiens) (UniProt P30556). Description: AT1 (h) Eurofins-Cerep binding assay. Conditions: filed as antagonist, Compound concentration 10.0 uM. Also on record: ligand concentration 0.05 nM.
Data set [10] has as its target B2 bradykinin receptor (Homo sapiens) (UniProt P30411). Description: B2 (h) Eurofins-Cerep binding assay. Also on record: ligand concentration 0.3 nM. Conditions: filed as agonist, Compound concentration 10.0 uM.
Data set [11] concerns the target Cannabinoid receptor 1 (Homo sapiens) (UniProt P21554). Description: CB1 (h) Eurofins-Cerep binding assay. Also on record: ligand concentration 0.5 nM. Conditions: filed as agonist, Compound concentration 10.0 uM.
For data set [12], the target named is D(2) dopamine receptor (Homo sapiens) (UniProt P14416). Description: D2S (h) Eurofins-Cerep binding assay. Also on record: ligand concentration 0.3 nM. Conditions: filed as antagonist, Compound concentration 10.0 uM.
Data set [13] addresses T2, GABA-A receptor; anion channel (Rattus norvegicus) (UniProt O09028+P15431+P18506+P18508+P19969+P20236+P23574+P23576+P28471+P28473+P30191+P62813+P63079+P63138+Q91ZM7+Q9ES14). Description: GABA (non-selective) Eurofins-Cerep binding assay. Conditions: filed as agonist, Compound concentration 10.0 uM. Type of data set: protein-complex assay. Also on record: ligand concentration 10 nM.

Data set [14] deals with C-C chemokine receptor type 1 (Homo sapiens) (UniProt P32246). Description: CCR1 (h) Eurofins-Cerep binding assay. Also on record: ligand concentration 0.01 nM. Particulars: filed as agonist, Compound concentration 10.0 uM.
Data set [15] deals with Histamine H1 receptor (Homo sapiens) (UniProt P35367). Description: H1 (h) Eurofins-Cerep binding assay. Also on record: ligand concentration 1 nM. Particulars: filed as antagonist, Compound concentration 10.0 uM.
The target in data set [16] is Histamine H2 receptor (Homo sapiens) (UniProt P25021). Description: H2 (h) Eurofins-Cerep binding assay. Also on record: ligand concentration 0.075 nM. Particulars: filed as antagonist, Compound concentration 10.0 uM.
Data set [17] addresses Melanocortin receptor 4 (Homo sapiens) (UniProt P32245). Description: MC4 (h) Eurofins-Cerep binding assay. Also on record: ligand concentration 0.05 nM. Conditions: filed as agonist, Compound concentration 10.0 uM.
The target in data set [18] is Muscarinic acetylcholine receptor M3 (Homo sapiens) (UniProt P20309). Description: M3 (h) Eurofins-Cerep binding assay. Also on record: ligand concentration 0.2 nM. Conditions: filed as antagonist, Compound concentration 10.0 uM.
Data set [19] deals with Neuropeptide Y receptor type 2 (Homo sapiens) (UniProt P49146). Description: Y2 (h) Eurofins-Cerep binding assay. Also on record: ligand concentration 0.015 nM. Conditions: filed as agonist, Compound concentration 10.0 uM.
Data set [20] concerns the target Mu-type opioid receptor (Homo sapiens) (UniProt P35372). Description: mu (MOP) (h) Eurofins-Cerep binding assay. Also on record: ligand concentration 0.5 nM. Conditions: filed as agonist, Compound concentration 10.0 uM.
Data set [21] deals with 5-hydroxytryptamine receptor 2A (Homo sapiens) (UniProt P28223). Description: 5-HT2A (h) Eurofins-Cerep binding assay. Particulars: filed as antagonist, Compound concentration 10.0 uM. Also on record: ligand concentration 0.5 nM.
The target of data set [22] is 5-hydroxytryptamine receptor 2B (Homo sapiens) (UniProt P41595). Description: 5-HT2B (h) Eurofins-Cerep binding assay. Also on record: ligand concentration 0.2 nM. Particulars: filed as agonist, Compound concentration 10.0 uM.
Data set [23] has as its target T3, 5-hydroxytryptamine receptor 3A (Homo sapiens) (UniProt P46098).
T3 sequence (whole entry): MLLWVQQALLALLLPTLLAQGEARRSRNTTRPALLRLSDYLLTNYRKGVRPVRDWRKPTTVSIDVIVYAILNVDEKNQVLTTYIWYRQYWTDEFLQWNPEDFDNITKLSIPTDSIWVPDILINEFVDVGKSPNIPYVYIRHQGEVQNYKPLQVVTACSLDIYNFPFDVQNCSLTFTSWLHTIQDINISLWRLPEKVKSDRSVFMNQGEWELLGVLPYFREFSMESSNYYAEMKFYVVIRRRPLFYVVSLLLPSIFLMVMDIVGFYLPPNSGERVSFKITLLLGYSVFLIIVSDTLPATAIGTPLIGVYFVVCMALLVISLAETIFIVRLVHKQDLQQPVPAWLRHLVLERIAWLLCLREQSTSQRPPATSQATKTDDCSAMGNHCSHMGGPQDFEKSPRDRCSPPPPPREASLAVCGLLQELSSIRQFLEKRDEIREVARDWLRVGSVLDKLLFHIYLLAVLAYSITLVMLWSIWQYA
Description: 5-HT3 (h) Eurofins-Cerep binding assay. Particulars: filed as antagonist, Compound concentration 10.0 uM. Also on record: ligand concentration 0.5 nM.

Data set [24] has as its target T1, 5-hydroxytryptamine receptor 5A. Description: 5-HT5a (h) Eurofins-Cerep binding assay. Also on record: ligand concentration 1.5 nM. Particulars: filed as agonist, Compound concentration 10.0 uM.
Data set [25] has as its target 5-hydroxytryptamine receptor 7 (Homo sapiens) (UniProt P34969). Description: 5-HT7 (h) Eurofins-Cerep binding assay. Also on record: ligand concentration 4 nM. Conditions: filed as agonist, Compound concentration 10.0 uM.
In data set [26] the target is Somatostatin receptor (Mus musculus) (UniProt P30935+O08858+P30875+P30873+P49660). Description: sst (non-selective) Eurofins-Cerep binding assay. Conditions: filed as agonist, Compound concentration 10.0 uM. Also on record: ligand concentration 0.05 nM. Type of data set: protein assay.
Data set [27] addresses Vasoactive intestinal polypeptide receptor 1 (Homo sapiens) (UniProt P32241). Description: VPAC1 (VIP1) (h) Eurofins-Cerep binding assay. Also on record: ligand concentration 0.04 nM. Particulars: filed as agonist, Compound concentration 10.0 uM.
For data set [28], the target named is L-type Ca2+ channel (dihydropyridine site) (Rattus norvegicus, UniProt P22002+P27732+Q02485). Description: Ca2+ channel (L, dihydropyridine site) Eurofins-Cerep binding assay. Type of data set: protein assay. Also on record: incubation time 90 min, incubation temperature RT, ligand concentration 0.1 nM. Particulars: rat cerebral cortex, probe [3H]nitrendipine, compound concentration 10 uM, read-out: % Inhibition of Control Specific Binding (Mean n=2).

Data set [29] addresses L-type Ca2+ channel (verapamil site, phenylalkylamine) (Rattus norvegicus, UniProt P22002+P27732+Q02485). Description: Ca2+ channel (L, verapamil site) (phenylalkylamine) Eurofins-Cerep binding assay. Type of data set: protein assay. Also on record: incubation time 120 min, incubation temperature RT, ligand concentration 3 nM. Conditions: rat cerebral cortex, probe [3H]D888, compound concentration 10 uM, read-out: % Inhibition of Control Specific Binding (Mean n=2).

The next data set is filed under the species Rattus norvegicus. Description: SKCa channel Eurofins-Cerep binding assay. Also on record: ligand concentration 0.007 nM. Particulars: filed as antagonist, Compound concentration 10.0 uM.
Data set [30] addresses T2, GABA-A receptor; anion channel (Rattus norvegicus). Description: Cl- channel (GABA-gated) Eurofins-Cerep binding assay. Particulars: filed as antagonist, Compound concentration 10.0 uM. The data set is classed as protein-complex assay. Also on record: ligand concentration 3 nM.
Data set [31] deals with Sodium-dependent dopamine transporter (Homo sapiens, UniProt Q01959). Description: dopamine transporter (h) Eurofins-Cerep binding assay. Conditions: filed as antagonist, Compound concentration 10.0 uM. Also on record: ligand concentration 4 nM.
The target of data set [32] is Sodium-dependent serotonin transporter (Homo sapiens) (UniProt P31645). Description: 5-HT transporter (h) Eurofins-Cerep binding assay. Also on record: ligand concentration 2 nM. Conditions: filed as antagonist, Compound concentration 10.0 uM.

T1 sequence (P47898 whole entry): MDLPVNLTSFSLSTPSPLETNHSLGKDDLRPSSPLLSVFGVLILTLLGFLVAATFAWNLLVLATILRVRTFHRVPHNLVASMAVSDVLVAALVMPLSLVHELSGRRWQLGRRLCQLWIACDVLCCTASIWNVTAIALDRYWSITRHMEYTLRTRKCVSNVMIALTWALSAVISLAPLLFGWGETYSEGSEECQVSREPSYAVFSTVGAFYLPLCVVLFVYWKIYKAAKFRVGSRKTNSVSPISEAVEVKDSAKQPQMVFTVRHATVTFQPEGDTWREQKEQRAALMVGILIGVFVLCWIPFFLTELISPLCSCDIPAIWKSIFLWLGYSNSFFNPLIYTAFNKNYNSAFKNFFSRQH
Sequence of Somatostatin receptor (Mus musculus) (P30935 whole entry): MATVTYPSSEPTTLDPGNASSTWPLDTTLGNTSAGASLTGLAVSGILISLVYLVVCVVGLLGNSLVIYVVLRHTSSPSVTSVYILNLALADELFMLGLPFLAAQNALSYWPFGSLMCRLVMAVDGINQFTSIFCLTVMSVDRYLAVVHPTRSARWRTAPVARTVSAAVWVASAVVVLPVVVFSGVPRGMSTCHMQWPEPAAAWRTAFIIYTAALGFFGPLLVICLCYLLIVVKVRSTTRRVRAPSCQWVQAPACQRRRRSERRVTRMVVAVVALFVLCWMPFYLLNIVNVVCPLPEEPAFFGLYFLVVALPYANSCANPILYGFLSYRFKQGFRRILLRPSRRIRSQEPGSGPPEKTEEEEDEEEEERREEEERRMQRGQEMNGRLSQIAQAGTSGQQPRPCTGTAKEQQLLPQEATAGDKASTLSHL
Sequence of Somatostatin receptor (Mus musculus) (O08858 whole entry): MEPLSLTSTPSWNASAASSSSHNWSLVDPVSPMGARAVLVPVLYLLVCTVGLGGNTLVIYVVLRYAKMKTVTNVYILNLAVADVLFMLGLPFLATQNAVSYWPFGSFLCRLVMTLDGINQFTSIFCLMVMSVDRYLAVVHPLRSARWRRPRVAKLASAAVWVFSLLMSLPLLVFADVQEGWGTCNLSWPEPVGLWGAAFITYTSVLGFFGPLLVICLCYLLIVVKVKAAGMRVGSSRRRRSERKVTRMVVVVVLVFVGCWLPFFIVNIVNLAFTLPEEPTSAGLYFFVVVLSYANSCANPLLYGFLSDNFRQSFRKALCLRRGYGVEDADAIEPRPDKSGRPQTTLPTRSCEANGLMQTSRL
Sequence of Somatostatin receptor (Mus musculus) (P30875 whole entry): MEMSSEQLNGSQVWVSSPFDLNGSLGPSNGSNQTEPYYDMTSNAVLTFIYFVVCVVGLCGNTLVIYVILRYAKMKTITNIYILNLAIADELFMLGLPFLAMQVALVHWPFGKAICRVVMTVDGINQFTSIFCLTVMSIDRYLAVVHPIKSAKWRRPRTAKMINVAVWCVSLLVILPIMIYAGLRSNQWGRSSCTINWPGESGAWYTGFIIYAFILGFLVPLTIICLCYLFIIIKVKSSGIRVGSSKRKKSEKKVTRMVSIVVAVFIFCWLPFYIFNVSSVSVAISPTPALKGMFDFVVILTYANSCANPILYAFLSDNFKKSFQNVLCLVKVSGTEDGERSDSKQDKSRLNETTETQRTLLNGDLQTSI
Sequence of Somatostatin receptor (Mus musculus) (P30873 whole entry): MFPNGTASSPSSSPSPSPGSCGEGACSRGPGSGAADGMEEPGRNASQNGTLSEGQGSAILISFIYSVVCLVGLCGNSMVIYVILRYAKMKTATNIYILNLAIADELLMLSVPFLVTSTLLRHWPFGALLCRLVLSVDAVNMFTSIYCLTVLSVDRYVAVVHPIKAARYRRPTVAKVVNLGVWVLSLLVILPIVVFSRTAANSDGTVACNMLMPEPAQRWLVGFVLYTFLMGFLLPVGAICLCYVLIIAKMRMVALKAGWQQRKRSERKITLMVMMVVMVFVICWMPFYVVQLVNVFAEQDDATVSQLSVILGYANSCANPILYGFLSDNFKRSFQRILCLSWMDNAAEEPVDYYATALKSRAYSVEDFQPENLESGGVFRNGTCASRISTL
Sequence of Somatostatin receptor (Mus musculus) (P49660 with tags, fused parts or gaps): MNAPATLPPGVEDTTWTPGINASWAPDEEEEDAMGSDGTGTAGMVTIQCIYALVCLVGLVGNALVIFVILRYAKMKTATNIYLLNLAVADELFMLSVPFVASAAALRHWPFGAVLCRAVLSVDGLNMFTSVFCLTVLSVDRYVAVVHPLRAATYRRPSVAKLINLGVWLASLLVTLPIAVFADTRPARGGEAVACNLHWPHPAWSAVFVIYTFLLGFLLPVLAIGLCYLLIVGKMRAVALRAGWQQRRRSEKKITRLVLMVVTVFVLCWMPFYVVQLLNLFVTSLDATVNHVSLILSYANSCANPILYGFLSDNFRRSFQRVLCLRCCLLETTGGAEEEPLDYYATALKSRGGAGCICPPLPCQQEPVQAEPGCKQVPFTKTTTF
Sequence of Type-1 angiotensin II receptor (Homo sapiens) (P30556 whole entry): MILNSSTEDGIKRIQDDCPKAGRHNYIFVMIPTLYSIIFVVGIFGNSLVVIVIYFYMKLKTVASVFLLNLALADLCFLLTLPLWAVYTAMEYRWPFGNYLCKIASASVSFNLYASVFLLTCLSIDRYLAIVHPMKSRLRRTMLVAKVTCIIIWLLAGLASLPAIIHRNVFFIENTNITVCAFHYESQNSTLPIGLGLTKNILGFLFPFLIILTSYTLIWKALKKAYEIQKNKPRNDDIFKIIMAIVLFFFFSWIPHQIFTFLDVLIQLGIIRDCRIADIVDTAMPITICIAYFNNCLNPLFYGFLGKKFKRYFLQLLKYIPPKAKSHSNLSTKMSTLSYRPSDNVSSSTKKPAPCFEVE
Sequence of Beta-2 adrenergic receptor (Homo sapiens) (P07550 whole entry, looked up): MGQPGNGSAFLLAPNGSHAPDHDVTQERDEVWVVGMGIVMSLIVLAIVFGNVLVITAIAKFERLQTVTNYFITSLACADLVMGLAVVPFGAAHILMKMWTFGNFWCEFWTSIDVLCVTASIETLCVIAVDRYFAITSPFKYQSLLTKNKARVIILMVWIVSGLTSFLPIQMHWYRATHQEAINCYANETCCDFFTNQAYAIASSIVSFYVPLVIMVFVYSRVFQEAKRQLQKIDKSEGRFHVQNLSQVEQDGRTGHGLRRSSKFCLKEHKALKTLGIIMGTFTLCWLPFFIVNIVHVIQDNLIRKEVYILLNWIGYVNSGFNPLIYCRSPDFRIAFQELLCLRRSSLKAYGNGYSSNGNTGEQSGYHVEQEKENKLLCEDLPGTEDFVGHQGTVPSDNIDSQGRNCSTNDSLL
Sequence of Melanocortin receptor 4 (Homo sapiens) (P32245 whole entry): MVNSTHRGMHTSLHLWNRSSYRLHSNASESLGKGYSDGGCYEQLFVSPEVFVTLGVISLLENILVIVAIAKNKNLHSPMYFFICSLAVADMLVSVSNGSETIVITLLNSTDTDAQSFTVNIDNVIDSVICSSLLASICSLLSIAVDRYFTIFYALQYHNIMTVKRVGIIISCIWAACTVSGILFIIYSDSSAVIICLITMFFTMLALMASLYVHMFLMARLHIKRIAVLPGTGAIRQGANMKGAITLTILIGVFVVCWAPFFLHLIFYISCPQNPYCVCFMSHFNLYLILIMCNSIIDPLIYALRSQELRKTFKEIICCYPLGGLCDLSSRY
Sequence of Sodium-dependent dopamine transporter (Q01959 whole entry): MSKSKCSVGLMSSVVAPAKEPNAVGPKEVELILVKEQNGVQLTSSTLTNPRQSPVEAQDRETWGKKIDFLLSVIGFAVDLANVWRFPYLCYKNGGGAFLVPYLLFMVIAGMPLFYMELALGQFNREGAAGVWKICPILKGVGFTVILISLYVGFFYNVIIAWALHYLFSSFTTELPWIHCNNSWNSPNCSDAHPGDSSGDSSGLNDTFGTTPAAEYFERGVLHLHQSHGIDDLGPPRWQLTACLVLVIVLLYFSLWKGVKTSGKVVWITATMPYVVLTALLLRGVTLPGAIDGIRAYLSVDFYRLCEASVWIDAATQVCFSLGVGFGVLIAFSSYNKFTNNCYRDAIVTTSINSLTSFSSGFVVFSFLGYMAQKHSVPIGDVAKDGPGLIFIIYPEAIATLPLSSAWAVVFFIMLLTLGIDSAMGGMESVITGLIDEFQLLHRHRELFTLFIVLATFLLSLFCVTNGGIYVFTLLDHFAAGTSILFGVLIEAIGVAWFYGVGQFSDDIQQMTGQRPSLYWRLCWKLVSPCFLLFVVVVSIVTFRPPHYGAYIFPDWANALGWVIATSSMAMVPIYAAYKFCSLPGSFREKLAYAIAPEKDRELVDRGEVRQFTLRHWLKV
Sequence of Histamine H2 receptor (Homo sapiens) (P25021 whole entry): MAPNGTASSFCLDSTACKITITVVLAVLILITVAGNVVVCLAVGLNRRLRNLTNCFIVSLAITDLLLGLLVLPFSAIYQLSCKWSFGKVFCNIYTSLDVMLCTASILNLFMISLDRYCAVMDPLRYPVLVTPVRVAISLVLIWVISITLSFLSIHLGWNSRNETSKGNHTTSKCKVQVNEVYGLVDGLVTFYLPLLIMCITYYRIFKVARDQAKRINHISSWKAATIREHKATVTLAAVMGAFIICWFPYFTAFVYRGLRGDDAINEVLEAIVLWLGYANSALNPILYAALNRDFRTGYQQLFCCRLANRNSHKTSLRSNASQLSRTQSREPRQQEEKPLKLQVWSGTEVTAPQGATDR
Sequence of Monocarboxylate transporter 4 (O15427 whole entry): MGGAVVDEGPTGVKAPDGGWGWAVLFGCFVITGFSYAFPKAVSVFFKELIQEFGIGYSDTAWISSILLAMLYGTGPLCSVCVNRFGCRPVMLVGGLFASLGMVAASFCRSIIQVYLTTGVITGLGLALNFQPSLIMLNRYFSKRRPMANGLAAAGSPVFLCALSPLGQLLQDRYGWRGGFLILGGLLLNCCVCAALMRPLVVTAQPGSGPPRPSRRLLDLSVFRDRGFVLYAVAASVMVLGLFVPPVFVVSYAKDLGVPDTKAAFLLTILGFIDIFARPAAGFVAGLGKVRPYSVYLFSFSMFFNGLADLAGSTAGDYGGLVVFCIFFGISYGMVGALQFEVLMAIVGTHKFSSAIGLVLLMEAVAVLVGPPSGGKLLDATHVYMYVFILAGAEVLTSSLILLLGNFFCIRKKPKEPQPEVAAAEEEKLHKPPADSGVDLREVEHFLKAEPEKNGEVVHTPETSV

By Ki is commonly meant the equilibrium dissociation constant of an inhibitor or competing ligand from its target. The term pKi denotes −log10 of the Ki, conventionally taken in molar units. The term IC50 denotes the point on the concentration scale where inhibition reaches its midpoint. Low readings indicate greater potency in that assay, high ones weaker potency in that assay. As usually defined, the inhibition is the drop in the measured response relative to a control, in per cent. As for `COc1cc(C(=O)O)ncc1C#Cc1ccccc1NS(=O)(=O)c1cccc2c(N(C)C)ccnc12` [MSC-0516], in data set [1], the Ki came out at 734 nM and the pKi amounted to 6.14. In data set [2], the IC50 is given as 506 nM (not active). Besides, in data set [3], the inhibition is 12.2%. Further, the inhibition in data set [4] was 11%.
As to `CCOc1ccc(S(=O)(=O)Nc2ccc(Cl)cc2C#Cc2cnc(C(=O)O)cc2OC)c2ncccc12` [MSC-4381], the Ki in data set [5] was 1630 nM. The % Inhibition of Control Specific Binding (Mean n=2) in data set [6] is 28.1%; in [7], 17.4%; in data set [8], -3.7%; in data set [9], 4.2%; in data set [10], -1.1%; in data set [11], -11.3%. In addition, the % Inhibition of Control Specific Binding (Mean n=2) in data set [12] was 9.2%; in data set [13], 1.2%; in data set [14], -4.3%; in [15], 27.6%; in [16], -16.1%; in data set [17] it was -8%. In addition, the % Inhibition of Control Specific Binding (Mean n=2) was 8% in [18]; 8% in data set [19]; -8.9% in data set [20]; -4.1% in [21]; -47.1% in [22]; -8% in data set [23]. The % Inhibition of Control Specific Binding (Mean n=2) in data set [24] is -20.7%; in data set [25] it was -6.6%; in [26] it was -21.6%; in data set [27], -3.2%; in the data set listed under Rattus norvegicus it was -6.7%; in [30], 59.9%. Moreover, the % Inhibition of Control Specific Binding (Mean n=2) in data set [31] came to 7.8%; in [32], 2.4%. The inhibition at 90 min, 10 µM in data set [28] was -11%. The inhibition at 120 min, 10 µM in [29] was -9.8%.
